Data taken from patent publication US6740680B1, “Pharmaceutical compositions to tetrac and methods of use thereof” (Becton Pharma, Inc., priority 1999, dated 2004).
Read-outs that look alike come from different tables or passages of the source.

Columns and labels:
[1] = test system: Monodeiodinase type 1; test: Monodeiodinase type 1 activity in liver and heart homogenates of infused rats; type: in vivo, rat
Protocol: (§1) Seventy-nine male SIVZ rats were purchased from the breeder (Institut für Labortierkunde des Universität Zürich, Zürich, Switzerland). They were rendered hypothyroid by a single injection of [^131I]Na (100 μCi/rat) and before and throughout the experiment 0.02% 2-mercapto-1-methylimidazol (MMI) was added to drinking water. In order to have an euthyroid control group of similar weight and identical age, 10 rats received only MMI in the drinking water and 2 weeks before implanting the minipumps, MMI was withdrawn. Osmotic minipumps (secretion rate 0.25 μl/hour, duration 14 days) were implanted intraperitoneally (i.p.) 2 months after the injection of [^131I]Na. The minipumps were filled with T4 or Tetrac dissolved in 0.05 N NaOH, 2% BSA and 100,000 cpm [^125I]T4 or [^125I]Tetrac as control of their secretion rates. The infusion lasted 13 days. 0, 1.5, 4.5, 13.5 and 40.5 nmol Tetrac/day/100 g or 0.5, 1.5, 4.5 and 13.5 nmol T4/day/100 g bodyweight (BW) (n=4/dose) were infused. An euthyroid control group was included. The animals were weighed every 2 days. Rats were sacrificed by decapitation and blood was collected and stored at […] until use. Tissues (liver, heart, brown adipose tissue, cerebral cortex and pituitary) were removed rapidly, frozen in liquid nitrogen and stored at […] until use.
Monodeiodinase type 1 and 2 activities. Monodeiodinase type 1 and type 2 activities were determined in tissue homogenates by measuring the release of radioiodide from [^125I]rT3 according to the method of Leonard and Rosenberg (Leonard, J. L. et al. Endocrinology (1980) 106: 444-451).
Monodeiodinase type 1 activity was measured in liver homogenates using 1 μM rT3 and 1 mM DTT with 10 min of incubation, whereas for heart, 0.01 μM rT3 and 10 mM DTT with 1 hour of incubation. Monodeiodinase type 2 activity was measured in brown adipose tissue (BAT) and cerebral cortex using 1 nM rT3, 10 mM DTT and 1 mM propylthiouracil (PTU) with 1 hour of incubation. Protein concentrations were measured by the method of Bradford (Bio-Rad Laboratories GmbH, Munich, Germany) with bovine gammaglobulin as the protein standard. In order to study the effect of circulating Tetrac on the enzyme activities, 2 rats were injected intraperitoneally with 10 μCi ^125I Tetrac and killed 6 hours later. The tissue homogenates were extracted with 3 volumes of ethanol-NH3 (97:3). After 10 minutes centrifugation at 15,000 g, the supernatant was vacuum dried and applied to TLC (Merck 254, Toluol, acetic acid, water: 2:2:1). In order to calculate the tissue concentrations, the highest serum Tetrac levels were used (406 pmol/ml). The calculated tissue concentrations were: liver: 1.9, heart: 2.29 and brain cortex: 0.47 fluol Tetrac/μg protein.

[2] = test system: TSH; test: Suppression of TSH by Tetrac in humans
Protocol: A patient receiving 200 μg/day dose of T4 was withdrawn from T4 treatment and treated with Tetrac for 21 days with a dose of 2100 μg/day.

[3] = Serum T3, T4, Triac and Tetrac levels in infused rats; type: in vivo; conditions: male, SIVZ, rat, intraperitoneal, mean ± SEM, read-out: Serum Tetrac
Protocol: as §1
Hornone assays. Total serum T4, T3, Tetrac, Triac and TSH levels (intra-assay coefficient of variation 7 to 10%, inter-assay coefficient of variation 12 to 15%) were measured using the method of Burger, A., Sakoloff, C., Staeheli, V., Vallotton, M. D., and Ingbar, S. H. Acta. Endocrinol. (Copenh.) 80: 58-69 (1975). Serum TSH measurements were performed with reagents kindly provided by the National Pituitary Program, NIAMDD, NIH (Bethesda, USA). The detection limits were 0.80 ng TSH/ml; 9.5 pmol T4/ml; 0.16 pmol T3/ml; 10 pmol Tetrac/ml and 0.52 pmol Triac/ml.

[4] = test system: hypothyroid rats; test: Heart weight and heart/body weight in hypothyroid rats infused with Tetrac or T4; type: in vivo, rat; conditions: for Heart / Heart/BW (%): hypothyroid rats, mean ± SEM; for Heart: continuous minipump infusion
Protocol: as §1

[5] = test system: Cynomologus monkeys
Protocol: Preparation of Tetrac for injection. Tetrac from Rhône-Poulenc and Henning Laboratory were compared. Tetrac powder was dissolved in sterile 0.1 N NaOH at 2 mg/ml. This solution was made before the beginning of each treatment period and stored at 4° C. in polypropylene tubes, protected from light. Each solution for injection was prepared daily after dilution in the vehicle (0.9% NaCl) containing 5% monkey serum (v/v), and was stored at room temperature and protected from light, according to the storage conditions of the test substance.
Animals. One male and one female purpose bred Cynomologus monkeys Macaca fascicularis were supplied by Centre de Recherches Primatologiques, Port Louis, Mauritius. […] The animals were individually housed in stainless steel cages and a metallic tray was placed under each cage in order to collect urine. The animals were fed daily with approximately 200 grams each of U.A.R. 107 C pelleted diet (batch Nos. 61106, 61207 and 70317, U.A.R., Villemoisson-sur-Orge, France), distributed about 2 hours after treatment with Tetrac. No contaminants were known to have been present in the diet, drinking water or bedding material at levels which may be expected to have interfered with or prejudiced the outcome of the study.
Weeks 1 to 3 and weeks 7 to 9: the animals received the test substance TETRAC provided either by Rhone-Poulenc or by Henning Laboratories over a three-week period.
Weeks 4 to 6 and weeks 10 to 12: a washout period of three weeks was observed.
Administration of Tetrac. Tetrac was administered via intramuscular injection into the thigh muscle once a day, at approximately the same time each day, several days a week over a three week period. The quantity of tetrac administered to each animal was adjusted according to the most recently recorded body weight. A constant dosage-volume of 0.5 ml/kg was used.
Morbidity and mortality. The animals were checked at least twice a day, for mortality and signs of morbidity.
Body weight. Body weight was recorded for each animal once before the beginning of the treatment period, on the first day of the treatment period, and at least once a week until the end of the study.
Food consumption. Food consumption was estimated for each animal by calculating the difference between the quantity given and that remaining the next morning. This was estimated daily during the week before treatment and throughout the study. Food consumption was expressed as a percentage of the quantity given. Whenever fasting was required, the food was removed at the end of the day and the estimation of consumption was made at that time, food being made available for approximately five hours on that day.

O=C(O)Cc1cc(I)c(Oc2cc(I)c(O)c(I)c2)c(I)c1 [Tetrac, 3,3′,5,5′-tetraiodothyroacetic acid]
Residual Monodeiodinase type 1 activity, Tetrac/T4 (activity of Tetrac in % of T4) ([1]; Liver, at equal serum TSH concentration): 59% | Residual Monodeiodinase type 1 activity, adjusted mean ([1]; Liver, infused rats, adjusted group mean at the mean Ln (TSH) concentration): 106 | Cardiac monodeiodinase type 1 activity, response to increasing doses (in words) ([1]; heart, FIG. 2a, compared to T4, p<0.001): weak response | TSH after treatment ([2]; one patient withdrawn from T4, Tetrac 2100 μg/day, after 21 days): 6.3 mU/L | TSH before treatment (after T4 withdrawal) ([2]; same patient, start of Tetrac treatment): 151.0 mU/L | concentration at 13 days ([3]; Tetrac infusion 1.5 nmol/day/100 g BW): 168 ± 16 nM | concentration at 13 days ([3]; Tetrac infusion 4.5 nmol/day/100 g BW): 332 ± 19 nM | concentration at 13 days ([3]; Tetrac infusion 13.5 nmol/day/100 g BW): 458 ± 27 nM | concentration at 13 days ([3]; Tetrac infusion 40.5 nmol/day/100 g BW): 406 ± 57 nM | Increase of heart weight relative to body weight with increasing infusion rates (in words) ([4]; compared with T4, p<0.01): less efficient | Heart ([4]; 1.5 nmol/day/100 g BW): 0.76 ± 0.02 g | Heart ([4]; 4.5 nmol/day/100 g BW): 0.83 ± 0.04 g | Heart ([4]; 13.5 nmol/day/100 g BW): 0.94 ± 0.03 g | Heart ([4]; 40.5 nmol/day/100 g BW): 0.98 ± 0.06 g | Heart/BW (%) ([4]; infusion 1.5 nmol/day/100 g BW): 0.31 ± 0.01% | Heart/BW (%) ([4]; infusion 4.5 nmol/day/100 g BW): 0.33 ± 0.02% | Heart/BW (%) ([4]; infusion 13.5 nmol/day/100 g BW): 0.36 ± 0.01% | Heart/BW (%) ([4]; infusion 40.5 nmol/day/100 g BW): 0.39 ± 0.02% | Clinical signs ([5]; 75 μg/kg/day intramuscular, treatment or washout periods): No clinical signs were observed | Body weight gain (in words) ([5]; Female, two treatment periods compared to washout periods): slightly higher body weight gain | Food consumption (in words) ([5]; Male): unaffected
